Experimental data published in patent US20210100246A1, “PYRIDYL-FORMAMIDINES HAVING A FUNGICIDAL ACTIVITY, THEIR AGRONOMIC COMPOSITIONS AND USE THEREOF” (ISAGRO, S.p.A., priority 2017, published 2021).

What was measured:
[1] = tested on: wheat seedlings; test: Phytotoxicity (percentage of leaf necrosis) on wheat seedlings; format: in vivo; conditions: for Phytotoxicity % N.F. (leaf necrosis): wheat seedlings, scale 0-100
Method: (§1) Leaves of wheat plants of the Salgemma variety, grown in pots in a conditioned environment at 20° C. and 70% of Relative Humidity (RH) were treated by spraying both sides of the leaves with the compound under examination (see Table 4 hereunder) dispersed in a hydroacetonic solution at 20% by volume of acetone.
At the same time, an evaluation of the phytotoxicity was effected (percentage of leaf necrosis) induced on the wheat seedlings by the application of the products: in this case the evaluation scale ranges from 0 (completely healthy plant) to 100 (completely necrotic plant).

[2] = tested on: Puccinia Recondita; test: Preventive fungicidal activity (5 days) against Puccinia Recondita on wheat; format: in vivo; conditions: for Activity P5 NT (reduction of leaf area affected, parts developed during the test) / Activity P5 T (reduction of leaf area affected, parts treated directly) / effectiveness in containing the disease (in words): wheat; for Activity P5 NT (reduction of leaf area affected, parts developed during the test): non-treated parts (NT); for effectiveness in containing the disease (in words): summary of Table 4
Method: Determination of the preventive fungicidal activity (5 days) against Puccinia Recondita on wheat.
as §1
After remaining 5 days in a conditioned environment, the plants were sprayed on both sides of the leaves with an aqueous suspension of conidia of Puccinia Recondita (2 mg of inoculum per 1 ml of solution for infection).
After spraying, the plants were kept in a humidity-saturated environment at a temperature ranging from 18 to 24° C. for the incubation period of the fungus (1 day).
At the end of this period, the plants were put in a greenhouse with a relative humidity (RH) of 70% and at a temperature of 18-24° C. for 14 days.
At the end of this period, the external symptoms of the pathogen appeared and it was therefore possible to proceed with the visual evaluation of the intensity of the infection, both on the parts treated directly with the products (T) and on the parts developed during the implementation of the test (NT).
(§2) The fungicidal activity is expressed as a percentage of the reduction, with respect to non-treated seedlings (comparison), in the area of the leaf affected by the disease (100=full effectiveness; 0=zero effectiveness).

[3] = tested on: Sphaerotheca Fuliginea; test: Preventive fungicidal activity (7 days) against Sphaerotheca Fuliginea on cucumbers; format: in vivo
Method: Determination of the preventive fungicidal activity (7 days) against Sphaerotheca Fuliginea on cucumbers.
(§3) Cucumber plants cv. Lungo of China, grown in pots in a conditioned environment were treated by spraying both sides with the products under examination in a hydroacetonic solution with 20% by volume of acetone (vol./vol.).
7 days after the treatment, the plants were sprayed on the upper side with an aqueous suspension of spores of Sphaerotheca Fuliginea (200,000 spores/cc); they were then re-transferred to the conditioned environment.
At the end of the period of incubation (8 days), the evaluation of the intensity of the infection was finally effected.
as §2

[4] = tested on: Uromyces Appendiculatus; test: Preventive fungicidal activity (5 days) against Uromyces Appendiculatus on beans; format: in vivo
Method: Determination of the preventive fungicidal activity (5 days) against Uromyces Appendiculatus on beans.
(§4) Bean plants cv. Borlotto of Vigevano, grown in pots in a conditioned environment, were treated by spraying both sides with the products under examination in a hydroacetonic solution with 20% by volume of acetone (vol./vol.).
After remaining 5 days in a conditioned environment at 23° C. and 70% of relative humidity, the plants were sprayed on the lower side with an aqueous suspension of spores of Uromyces Appendiculatus (200,000 spores/cc); after remaining 24 hours in a humidity-saturated environment, they were re-transferred to the conditioned environment.
After this period, the external symptoms of the pathogen appeared and it was therefore possible to proceed with the visual evaluation of the intensity of the infection.
as §2

[5] = tested on: bean seedlings; test: Phytotoxicity (percentage of leaf necrosis) on bean seedlings; format: in vivo; conditions: scale 0-100
Method: as §4
At the same time, an evaluation of the phytotoxicity was effected (percentage of leaf necrosis) induced on the bean seedlings by the application of the products: in this case the evaluation scale ranges from 0 (completely healthy plant) to 100 (completely necrotic plant).

[6] = tested on: cucumber seedlings; test: Phytotoxicity (percentage of leaf necrosis) on cucumber seedlings; format: in vivo; conditions: scale 0-100
Method: as §3
At the same time, an evaluation of the phytotoxicity was effected (percentage of leaf necrosis) induced on the cucumber seedlings by the application of the products: in this case the evaluation scale ranges from 0 (completely healthy plant) to 100 (completely necrotic plant).

[7] = Accelerated stability test of 5% solutions in commercial solvents (54° C., 2 weeks, HPLC); format: physicochemical
Method: Stability tests of the compositions containing compounds having formula (I) in a solvent
In order to evaluate the chemical stability of the compounds having Formula (I) in a solvent, 5% solutions were prepared, containing 250 mg of compounds Nr. 1, 17, 39 and 40, dissolved in 4.75 g of various commercial solvents used for the preparation of emulsifiable concentrates.
The resulting solutions were put in an oven at 54° C. for 2 weeks (according to Cipac MT 46.1 update 2012) and then analyzed by means of HPLC in order to verify the concentration of the active ingredient contained therein. The percentage of degradation of the compound having Formula (I) was therefore obtained, after the accelerated stability test.

[8] = solvent ADMA 10 (N,N-dimethyldecanamide)
[9] = solvent Alkamuls T/20 (ethoxylated sorbitan monolaurate)
[10] = solvent CME (rapeseed methyl ester)
[11] = solvent FMPC (N-formylmorpholine and propylene carbonate)
[12] = solvent Green 25 (dimethylsulfoxide, acetophenone, 2-ethylhexyl acetate)
[13] = solvent Purasolv BL (butyl lactate)
[14] = solvent RPDE (dimethyl glutarate, dimethyl succinate, dimethyl adipate)

Row | percentage of degradation [7, 8] | percentage of degradation [7, 9] | percentage of degradation [7, 10] | percentage of degradation [7, 11] | percentage of degradation [7, 12] | percentage of degradation ([7]; solvent Propylene carbonate) | Compound | Phytotoxicity % N.F. (leaf necrosis) ([1]; 125 ppm) | Phytotoxicity % N.F. (leaf necrosis) ([1]; 250 ppm) | Activity P5 NT (reduction of leaf area affected, parts developed during the test) ([2]; 125 ppm) | Activity P5 T (reduction of leaf area affected, parts treated directly) ([2]; 125 ppm) | Activity P5 NT (reduction of leaf area affected, parts developed during the test) ([2]; 250 ppm) | Activity P5 T (reduction of leaf area affected, parts treated directly) ([2]; 250 ppm) | Activity P5 ([3]; 30 ppm) | Activity P5 ([3]; 125 ppm) | Activity P5 ([4]; 30 ppm) | Activity P5 ([4]; 125 ppm) | symptoms of phytotoxicity on the plant (in words) ([1]; wheat, summary of Table 4) | effectiveness in containing the disease (in words) [2] | Phytotoxicity % N.F. (leaf necrosis) ([5]; 30 ppm) | Phytotoxicity % N.F. (leaf necrosis) ([5]; 125 ppm) | also measured
1 |  |  |  |  |  |  | CCN(C)C=Nc1cc(Br)c(OCCC(C)C)nc1C [CR1, N-ethyl-N-methyl-N′-[5-bromo-2-methyl-6-(3-methyl-butyloxy)-3-pyridyl]-formamidine, reference compound] | 5 % N.F. | 10 % N.F. | 20% | 60% | 50% | 80% |  |  |  |  |  |  |  |  | 
2 |  |  |  |  |  |  | CCN(C)C=Nc1cc(C)c(SCCC(C)C)nc1C [Compound 2] | 0 % N.F. | 0 % N.F. | 85% | 100% | 95% | 100% | 99% | 100% | 100% | 100% | do not show any symptoms of phytotoxicity | effective in containing the disease | 0 % N.F. | 0 % N.F. | Phytotoxicity % N.F. (leaf necrosis) ([6]; 30 ppm): 0 % N.F.; Phytotoxicity % N.F. (leaf necrosis) ([6]; 125 ppm): 2 % N.F.
3 |  |  |  |  |  |  | CCN(C)C=Nc1cc(C)c(SCc2cccc(C(F)(F)F)c2)nc1C [Compound 3, N-ethyl-N-methyl-N′-2,5-dimethyl-6-{[3(trifluoromethyl)benzyl]thio}pyridyl-3-formamidine] |  |  | 93% | 100% | 98% | 100% | 98% | 100% | 100% | 100% |  | effective in containing the disease |  |  | symptoms of phytotoxicity on the plant (in words) ([1]; in vivo): do not show any symptoms of phytotoxicity; Phytotoxicity % N.F. (leaf necrosis) ([6]; 30 ppm): 1 % N.F.; Phytotoxicity % N.F. (leaf necrosis) ([6]; 125 ppm): 3 % N.F.
4 |  |  |  |  |  |  | CCN(C)C=Nc1cc(Br)c(SCCC(C)C)nc1C [Compound 5] | 0 % N.F. | 0 % N.F. | 45% | 85% | 65% | 100% |  |  |  |  | do not show any symptoms of phytotoxicity | effective in containing the disease |  |  | activity compared with CR1 (in words) ([2]; also at low dosages (125 ppm)): more active
5 | 1.57% | 74.78% | 16% | 0.79% | 2.96% | 0% | CCCCCCSc1nc(C)c(N=CN(C)CC)cc1C [Compound 17] | 0 % N.F. | 0 % N.F. | 55% | 95% | 65% | 98% |  |  | 100% | 100% | do not show any symptoms of phytotoxicity | effective in containing the disease | 0 % N.F. | 0 % N.F. | percentage of degradation [7, 13]: 100%; percentage of degradation [7, 14]: 1.93%
6 | 0% | 79.78% | 17.31% | 1.53% | 1.84% | 0.61% | CCN(C)C=Nc1cc(C)c(SCc2c(F)cccc2F)nc1C [Compound 39] | 0 % N.F. | 0 % N.F. | 88% | 95% | 97% | 98% |  |  | 100% | 100% | do not show any symptoms of phytotoxicity | effective in containing the disease | 0 % N.F. | 0 % N.F. | percentage of degradation [7, 13]: 100%; percentage of degradation [7, 14]: 1.13%
7 | 1.09% | 81.02% | 12.76% | 0% | 2.82% | 0% | CCN(C)C=Nc1cc(C)c(SCC2CCCCC2)nc1C [Compound 40] | 0 % N.F. | 0 % N.F. | 55% | 80% | 70% | 90% |  |  | 100% | 100% | do not show any symptoms of phytotoxicity | effective in containing the disease | 0 % N.F. | 0 % N.F. | percentage of degradation [7, 13]: 100%; percentage of degradation [7, 14]: 1.71%
8 |  |  |  |  |  |  | N-ethyl-N-methyl-N′-[5-bromo-2-methyl-6-[(4-methylpentyloxy]pyridyl-3-formamidine [CR2, reference compound] |  |  |  |  |  |  | 75% | 85% | 80% | 90% |  |  |  |  | 
